Results taken from US3958014A, “Process for preparing injection-purpose fluorocarbon emulsion capable of carrying oxygen” (The Green Cross Corporation, priority 1970, dated 1976).

Columns and labels:
[1] = accumulation of intravenously injected fluorocarbon in liver and spleen; assay type: in vivo, laboratory animals; details: for fluorocarbon administered remaining in the organs (liver and spleen): 8 weeks from administration
Procedure: (§1) The present invention is specific in a number of aspects both as to the nature of materials used and the particle sizes and the like, of the resulting emulsion. These parameters were not arrived at casually but rather were determined through a systematic course of investigations which are discussed below. Parameters not expressly discussed below will be apparent to the skilled worker and appropriate conditions will be appreciated. Fluorocarbon - The sole fluorocarbons applicable to the present invention are perfluorodecalin or perfluoromethyldecalin or their mixture. A surfactant or emulsifying agent is also used and surfactant capable of emulsifying and stabilizing these fluorocarbons is egg yolk lecithin and preferably in an amount of from about 3 W/V % to 5 W/V % based on emulsion. There are a number of good reasons for the specificity of the fluorocarbon compounds that are useful.
On the other hand when an emulsion of perfluorodecalin and perfluoromethyldecalin is injected into the veins, of laboratory animals their accumulated in the animal's liver and spleen is very small. For example, perfluorodecalin is as low as zero % and perfluoromethyldecalin is 1.5% even after 8 weeks.

[2] = tested on: laboratory animal; assay: toxicity on injection of fluorocarbon emulsion into veins; assay type: in vivo, laboratory animals; details: emulsion injected into the veins
Procedure: as §1

Compound | accumulation in the animal's liver and spleen ([1]; i.v. emulsion) | fluorocarbon administered remaining in the organs (liver and spleen) ([1]; i.v. emulsion) | toxicity [2] | lung hazard [2] | accumulation in the animal's liver and spleen ([1]; in vivo, iv)
FC(F)(F)C(F)(F)C(F)(F)C(F)(F)N(C(F)(F)C(F)(F)C(F)(F)C(F)(F)F)C(F)(F)C(F)(F)C(F)(F)C(F)(F)F [FC-43, perfluorotributylamine] | most of these fluorocarbons are accumulated in the animal's liver and spleen | up to 40% | the toxicity resulting from the accumulation appears | – | –
FC(F)(F)C(F)(F)C(F)(F)C(F)(F)C1(F)OC(F)(F)C(F)(F)C1(F)F (centres unmarked) [FX-80, perfluorobutyltetrahydrofuran] | – | – | its toxicity is quite high | a remarkable lung hazard appears | –
FC(OC(F)(F)C(F)(OC(F)(F)C(F)(OC(F)(F)C(F)(OC(F)(F)C(F)(F)C(F)(F)F)C(F)(F)F)C(F)(F)F)C(F)(F)F)C(F)(F)F (centres unmarked) [Freon E4, 2-monohydro-nonacosafluoro3,6,9,12-tetraoxa-5,8,11-trimethylpentadecane] | most of these fluorocarbons are accumulated in the animal's liver and spleen | up to 40% | the toxicity resulting from the accumulation appears | – | –
FC1(F)C(F)(F)C(F)(F)C2(F)C(F)(F)C(F)(F)C(F)(F)C(F)(F)C2(F)C1(F)F (centres unmarked) [perfluorodecalin] | – | – | – | – | very small
perfluoromethyldecalin | very small | 1.5% | – | – | –
